Data as given in patent publication US20230219957A1, “SMALL MOLECULE CB002-ANALOGES RESTORE THE P53 PATHWAY AND TARGET S-PHASE CHECKPOINT” (Brown University, priority 2020, published 2023).

What was measured:
[1] = test system: SW480 colon cancer cells; experiment: Label-free quantitative proteomic analysis; type: cell-based, human; settings: twenty-four hours
Method: Proteomic analysis. SW480 cells were seeded at a density of 1×10^6 in 10 cm dishes and treated with dimethyl sulfoxide vehicle control or CB002-analog #4 for twenty-four hours. Floating cells were collected. Adherent cells were trypsinized. Cells were spun down and washed with phosphate-buffered saline. The pelleted cells were frozen and submitted for LC-MS/MS identification and comparative analysis at the Center for Cancer Research Development, Proteomics Core Facility at the Rhode Island Hospital. Samples (cell pellets) were lysed with a lysis buffer (8M urea, 1 mM sodium orthovanadate, 20 mM HEPES, 2.5 mM sodium pyrophosphate, 1 mM β-glycerophosphate, pH 8.0, twenty minutes, 4° C.) followed by sonication at 40% amplification by using a microtip sonicator (QSonica, LLC, Model no. Q55) and cleared by centrifugation (14,000×g, fifteen minutes, 15° C.). Protein concentration was measured (Pierce BCA Protein Assay, Thermo Fisher Scientific, Waltham, Mass., USA). A total of 100 μg of protein per sample was subjected to trypsin digestion. Tryptic peptides were desalted using C18 Sep-Pak plus cartridges (Waters, Milford, Mass., USA) and were lyophilized for forty-eight hours to dryness. […]
Sample preparation for LC-MS/MS analysis. […] Protein concentration was measured (Pierce BCA Protein Assay, Thermo Fisher Scientific) and 100 μg of protein per sample was subjected for trypsin digestion. […]

[2] = test system: SW480 cells; experiment: Propidium iodide Sub-G1 apoptosis analysis; type: cell-based, human; settings: compared to vehicle control, forty-eight hours
Method: Apoptosis assay. Apoptotic cells were quantified by sub-G1 analysis. Cells were seeded at a density of 2.5×10^5to 5×10^5in a 6-well plate and treated forty-eight to seventy-two hours. After treatment, adherent cells were trypsinized and collected along with floating cells, washed with phosphate-buffered saline, and fixed in 70% ethanol. Cells were then incubated in a phosphate-citric acid buffer (0.2M Na2HPO4+0.1M citric acid, pH 7.8) at room temperature for five minutes, spun down, and resuspended for staining with 50 μg/mL propidium iodide (PI) in the presence of 250 μg/mL pancreatic ribonuclease (RNase A). Sub-G1 analyses were performed using an Epics Elite Epics flow cytometer (Coulter-Beckman).
Propidium iodide and BrdU flow cytometry assay. Cells were seeded at a density of 5×10^5 in a 6-well plate and treated for forty-eight to seventy-two hours. After treatment, floating cells were collected, and adherent cells were trypsinized, pelleted, washed with phosphate-buffered saline, and fixed in 70% ethanol overnight. For propidium iodide (PI) based Sub-G1 apoptosis analysis, cells were spun down after fixation and resuspended in phosphate-citric acid buffer (0.2M Na2HPO4+0.1M Citric Acid, pH 7.8) at room temperature for five minutes. […] Samples were analyzed on an Epics Elite Epics flow cytometer (Coulter-Beckman).

Cn1c(=O)c2[nH]c(Nc3cccc(C(F)(F)F)c3)nc2n(C)c1=O [CB002-analog #4]
CDK4, CKS1B, ERCC6L, MAPK3, and MAX protein abundance [1]: decreased | Sub-G1 content [2]: significant increase of Sub-G1 content
